Test results from PubChem BioAssay AID248 (DTP/NCI, 2004).
Several values for one entry are separate records, joined by “and”; a condition that tells them apart may be missing. Identical values can stand only once. Toxic doses and inconclusive results are not listed. Cut-off read from the data, not from the text of the source: active = T/C of 150% or more; inactive = T/C below 125%.

Test system: L1210 leukemia ip in BDF1 mice, survival T/C
Experiment: NCI In Vivo Anticancer Drug Screen. Data for tumor model L1210 Leukemia (intraperitoneal) in B6D2F1 (BDF1) mice
Conditions: endpoint: mean survival time, higher = longer survival
How it was run: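 Antitumor effect is assessed in tumor-bearing animals. Survival in the compound arm is compared with a vehicle-dosed control arm and expressed as their quotient.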

[1] = dose: 100.0 mg/kg/injection, schedule: Q01DX009 (ip), vehicle: saline sonified
[2] = dose: 100.0 mg/kg/injection, schedule: Q04DX003 (ip), vehicle: Klucel (hydroxypropylcellulose) (HPC)
[3] = dose: 200.0 mg/kg/injection, schedule: Q01DX009 (ip), vehicle: saline sonified
[4] = dose: 200.0 mg/kg/injection, schedule: Q04DX003 (ip), vehicle: Klucel (hydroxypropylcellulose) (HPC)
[5] = dose: 400.0 mg/kg/injection, schedule: Q01DX009 (ip), vehicle: saline sonified
[6] = dose: 400.0 mg/kg/injection, schedule: Q04DX003 (ip), vehicle: Klucel (hydroxypropylcellulose) (HPC)
[7] = dose: 100.0 mg/kg/injection, schedule: Q04DX002 (ip), vehicle: Klucel (hydroxypropylcellulose) (HPC)
[8] = dose: 200.0 mg/kg/injection, schedule: Q04DX002 (ip), vehicle: Klucel (hydroxypropylcellulose) (HPC)
[9] = dose: 400.0 mg/kg/injection, schedule: Q04DX002 (ip), vehicle: Klucel (hydroxypropylcellulose) (HPC)
[10] = dose: 50.0 mg/kg/injection, schedule: Q01DX009 (ip), vehicle: Klucel (hydroxypropylcellulose) (HPC)
[11] = dose: 100.0 mg/kg/injection, schedule: Q01DX009 (ip), vehicle: Klucel (hydroxypropylcellulose) (HPC)
[12] = dose: 12.5 mg/kg/injection, schedule: Q04DX003 (ip), vehicle: Klucel (hydroxypropylcellulose) (HPC)
[13] = dose: 100.0 mg/kg/injection, schedule: Q01DX001 (ip), vehicle: Klucel (hydroxypropylcellulose) (HPC)
[14] = dose: 200.0 mg/kg/injection, schedule: Q01DX001 (ip), vehicle: Klucel (hydroxypropylcellulose) (HPC)
[15] = dose: 200.0 mg/kg/injection, schedule: Q01DX009 (ip), vehicle: Klucel (hydroxypropylcellulose) (HPC)
[16] = dose: 400.0 mg/kg/injection, schedule: Q01DX001 (ip), vehicle: Klucel (hydroxypropylcellulose) (HPC)
[17] = dose: 400.0 mg/kg/injection, schedule: Q01DX009 (ip), vehicle: Klucel (hydroxypropylcellulose) (HPC)
[18] = dose: 100.0 mg/kg/injection, schedule: Q04DX003 (ip), vehicle: saline with Tween-80
[19] = dose: 200.0 mg/kg/injection, schedule: Q04DX003 (ip), vehicle: saline with Tween-80
[20] = dose: 400.0 mg/kg/injection, schedule: Q04DX003 (ip), vehicle: saline with Tween-80
[21] = dose: 100.0 mg/kg/injection, schedule: Q04DX002 (ip), vehicle: saline with Tween-80

Measured: T/C

c1ccc2nc(-c3cc4ccccc4s3)ccc2c1
inactive: [1] 96 % of control | [2] 97 % of control | [3] 100 % of control | [4] 95 % of control | [5] 103 % of control | [6] 101 % of control

CC(C)C1=CC23CCC4C(C)(C(=O)Cl)CCCC4(C)C2CC1C1(Br)C(=O)OC(=O)C31Br (centres undefined)
inactive: dose: 75.0 mg/kg/injection, schedule: Q01DX001 (ip), vehicle: other 93 % of control | dose: 150.0 mg/kg/injection, schedule: Q01DX001 (ip), vehicle: other 88 % of control | dose: 300.0 mg/kg/injection, schedule: Q01DX001 (ip), vehicle: other 91 % of control

CCOC(=O)CNc1cccc(Cl)c1
inactive: [7] 107 % of control | [8] 103 % of control | [9] 96 % of control

NCCN1Cc2ccccc2CCc2ccccc2C1
inactive: dose: 25.0 mg/kg/injection, schedule: Q01DX009 (ip), vehicle: Klucel (hydroxypropylcellulose) (HPC) 111 % of control | [10] 105 % of control | [11] 93 % of control

CN1C2CCC1CC(=C(C#N)C(N)=O)C2
inactive: dose: 3.13 mg/kg/injection, schedule: Q01DX009 (ip), vehicle: Klucel (hydroxypropylcellulose) (HPC) 100 % of control | dose: 3.13 mg/kg/injection, schedule: Q04DX003 (ip), vehicle: Klucel (hydroxypropylcellulose) (HPC) 107 % of control | dose: 6.25 mg/kg/injection, schedule: Q01DX009 (ip), vehicle: Klucel (hydroxypropylcellulose) (HPC) 98 % of control | dose: 6.25 mg/kg/injection, schedule: Q04DX003 (ip), vehicle: Klucel (hydroxypropylcellulose) (HPC) 102 % of control | [12] 104 % of control and 88 % of control

Cc1ccc([Si](C)(C)[Si](C)C)cc1
inactive: [2] 98 % of control | [4] 102 % of control | [6] 105 % of control

COc1ncnc2nc[nH]c12
inactive: dose: 50.0 mg/kg/injection, schedule: Q01DX001 (ip), vehicle: Klucel (hydroxypropylcellulose) (HPC) 97 % of control | [13] 103 % of control | [11] 101 % of control | [2] 97 % of control | [14] 98 % of control | [15] 102 % of control | [4] 105 % of control | [16] 101 % of control | [17] 98 % of control | [6] 106 % of control

CC(=O)Nc1ccc(CCCCc2cccc(C(=N)N)c2)cc1
inactive: dose: 12.5 mg/kg/injection, schedule: Q01DX009 (ip), vehicle: saline 101 % of control | [12] 102 % of control | dose: 25.0 mg/kg/injection, schedule: Q01DX009 (ip), vehicle: saline 101 % of control | dose: 25.0 mg/kg/injection, schedule: Q04DX003 (ip), vehicle: Klucel (hydroxypropylcellulose) (HPC) 100 % of control | dose: 50.0 mg/kg/injection, schedule: Q01DX009 (ip), vehicle: saline 95 % of control | dose: 50.0 mg/kg/injection, schedule: Q04DX003 (ip), vehicle: Klucel (hydroxypropylcellulose) (HPC) 102 % of control

COC(=O)CN(c1c(C)cc(C)c(N)c1C)S(=O)(=O)c1ccccc1
inactive: [13] 95 % of control | [2] 96 % of control | [14] 103 % of control | [4] 100 % of control | [16] 97 % of control | [6] 107 % of control

CCCNC(=O)Nc1ccccc1OC
inactive: [7] 97 % of control | [8] 87 % of control | [9] 94 % of control

OC(Nc1ncccn1)C(Cl)(Cl)Cl (centres undefined)
inactive: [1] 96 % of control | [2] 95 % of control | [3] 94 % of control | [4] 102 % of control | [5] 89 % of control | [6] 101 % of control

O=S(=O)(Nc1nccs1)c1ccc(N=Nc2ccc(O)c3ncccc23)cc1
inactive: dose: 200.0 mg/kg/injection, schedule: Q01DX001 (ip), vehicle: saline 102 % of control | dose: 400.0 mg/kg/injection, schedule: Q01DX001 (ip), vehicle: saline 101 % of control

CCCCCCCCCCCCOc1ccccc1C(=O)O
inactive: [1] 98 % of control | [2] 97 % of control | [3] 116 % of control | [4] 89 % of control | [5] 108 % of control | [6] 99 % of control

CCOC(=O)c1ccc(NCc2nnc3nc(N)nc(N)c3n2)cc1
inactive: dose: 50.0 mg/kg/injection, schedule: Q01DX001 (ip), vehicle: saline with Tween-80 103 % of control | dose: 100.0 mg/kg/injection, schedule: Q01DX001 (ip), vehicle: saline with Tween-80 98 % of control | dose: 200.0 mg/kg/injection, schedule: Q01DX001 (ip), vehicle: saline with Tween-80 97 % of control

C#CCON(C(=O)Nc1ccc(Cl)cc1)C(=O)c1ccc(OC)cc1
inactive: [2] 88 % of control | [4] 86 % of control | [6] 93 % of control

CS(=O)(=O)OCC(OS(C)(=O)=O)C(COS(C)(=O)=O)OS(C)(=O)=O (centres undefined)
inactive: dose: 100.0 mg/kg/injection, schedule: Q01DX009 (ip), vehicle: saline with Tween-80 91 % of control | [18] 92 % of control | dose: 200.0 mg/kg/injection, schedule: Q01DX009 (ip), vehicle: saline with Tween-80 100 % of control | [19] 96 % of control | dose: 400.0 mg/kg/injection, schedule: Q01DX009 (ip), vehicle: saline with Tween-80 96 % of control | [20] 96 % of control

Cc1ccc(C(=O)/C(=C/c2ccccc2)c2ccccc2)cc1
inactive: [11] 101 % of control | [2] 96 % of control | [15] 97 % of control | [4] 93 % of control | [17] 88 % of control | [6] 96 % of control

COC1C=COC2(C)Oc3c(C)c(O)c4c(c3C2=O)/C(=N/C2CCC(O)OC2C)C=C(NC(=O)/C(C)=C\C(=O)C2CC2C(O)C(C)C(O)C(C)C(OC(C)=O)C1C)C4=O (centres undefined)
inactive: dose: 50.0 mg/kg/injection, schedule: Q04DX002 (ip), vehicle: saline with Tween-80 95 % of control | [21] 95 % of control

O=C(O)c1cnc(C(=O)O)cn1
inactive: [10] 98 % of control | [11] 87 % of control | [15] 91 % of control

CC(=O)c1cccc(O)c1
inactive: [21] 98 % of control | dose: 200.0 mg/kg/injection, schedule: Q04DX002 (ip), vehicle: saline with Tween-80 95 % of control | dose: 400.0 mg/kg/injection, schedule: Q04DX002 (ip), vehicle: saline with Tween-80 102 % of control

CCCCCCN=C(N)c1ccc(NC(=O)c2ccc(C(=O)Nc3ccc(C(N)=NCCCCCC)cc3)cc2)cc1
inactive: dose: 0.62 mg/kg/injection, schedule: Q01DX015 (ip), vehicle: methylcellulose (MC) 101 % of control | dose: 1.25 mg/kg/injection, schedule: Q01DX015 (ip), vehicle: methylcellulose (MC) 95 % of control | dose: 2.5 mg/kg/injection, schedule: Q01DX015 (ip), vehicle: methylcellulose (MC) 103 % of control | dose: 5.0 mg/kg/injection, schedule: Q01DX015 (ip), vehicle: methylcellulose (MC) 112 % of control

OCc1cccc(F)c1
inactive: dose: 100.0 mg/kg/injection, schedule: Q01DX009 (ip), vehicle: saline 98 % of control | dose: 100.0 mg/kg/injection, schedule: Q04DX003 (ip), vehicle: saline 105 % of control | dose: 200.0 mg/kg/injection, schedule: Q01DX009 (ip), vehicle: saline 95 % of control | dose: 200.0 mg/kg/injection, schedule: Q04DX003 (ip), vehicle: saline 102 % of control | dose: 400.0 mg/kg/injection, schedule: Q01DX009 (ip), vehicle: saline 98 % of control | dose: 400.0 mg/kg/injection, schedule: Q04DX003 (ip), vehicle: saline 104 % of control

COC1OC(CN2C(=O)c3ccccc3C2=O)C2OC(C)(C)OC12 (centres undefined)
inactive: [18] 106 % of control | [19] 97 % of control | [20] 96 % of control

O=C(OCc1ccccc1CN1CCOCC1)c1ccc(Cl)cc1
inactive: [7] 103 % of control | [8] 106 % of control | [9] 100 % of control

Cc1ccc(-n2c(=S)[nH]c3ccc(C)cc3c2=O)cc1
inactive: dose: 25.0 mg/kg/injection, schedule: Q01DX009 (ip), vehicle: saline with Tween-80 87 % of control | [18] 87 % of control

CCCCCCCCCCCCCCCCOc1ccccc1/C=C/C(=O)O
inactive: [2] 91 % of control | [4] 88 % of control | [6] 95 % of control
